The values below come from publication PMC5472631 (2017).

SMILES strings stand for the structures.

The test system of assay [1] is Pu24T (c-myc G-quadruplex DNA) (DNA, G4) TGAGGGTGGTGAGGGTGGGGAAGG
The assay can be described thus: ITC. The note with it: 100 mM KCl, 10 mM potassium phosphate; pH 7.0, 25 °C; site 1 of 2.

For assay [2] the test system is unchanged. The assay can be described thus: ligand fluorescence titration. As to conditions: 100 mM KCl, 10 mM potassium phosphate; pH 7.0, 25 °C; site 1 of 2.
The subject of assay [3] is Tel7, d-(T2AG3T)4 (DNA, G4) TTAGGGT. The assay is described as follows: ligand fluorescence titration. The note with it: 70 mM Na+; 25 °C.
The subject of assay [4] is c-kit21up (c-kit G-quadruplex DNA) (DNA, G4) CGGGCGGGCGCGAGGGAGGGG
The assay can be described thus: ligand fluorescence titration. As to conditions: 100 mM KCl, 10 mM potassium phosphate; pH 7.0, 25 °C.

Assay [5] concerns Pu24T (c-myc G-quadruplex DNA) (DNA, G4) TGAGGGTGGTGAGGGTGGGGAAGG
The assay is described as follows: NMR solution structure (NOESY, restrained MD). As to conditions: 298 K; D/N = 2.0; stacks at 5' and 3' G-tetrads.

For assay [6] the test system is unchanged. The assay is described as follows: UV melting at 295 nm. The note with it: 100 mM KCl, 10 mM potassium phosphate; pH 7.0; D/N = 2.0; Tm 70.0 to 80.0 °C.

For `COc1ccc([C@@H]2CC(=O)c3c(O)cc(O[C@@H]4O[C@H](CO[C@@H]5O[C@@H](C)[C@H](O)[C@@H](O)[C@H]5O)[C@@H](O)[C@H](O)[C@H]4O)cc3O2)cc1O`, the K1 in assay [1] was 7.35×10^5 ± 1.06 M^-1. Also, the Kd1 in assay [2] stood at 1 µM.

As for `C[C@@H]1O[C@@H](OC[C@H]2O[C@@H](Oc3c(-c4ccc(O)c(O)c4)oc4cc(O)cc(O)c4c3=O)[C@H](O)[C@@H](O)[C@@H]2O)[C@H](O)[C@H](O)[C@H]1O`, the K1 in assay [1] is on record as 7.23 × 10^5 ± 8.60 M-1. This compound showed a Kd1 in assay [2] of 17.1 µM.

For `O=c1c(-c2ccc(O)cc2)coc2c([C@@H]3O[C@H](CO)[C@@H](O)[C@H](O)[C@H]3O)c(O)ccc12`, in assay [1], the K1 is 1.10×10^4 ± 7.75 M^-1. Also, in assay [2], the Kd1 turned out to be 88.8 µM.

On to `O=c1c(-c2ccc(O)cc2)coc2cc(O)ccc12`, for which the K1 in assay [1] is reported as 3.34×10^5 ± 1.50 M^-1. This compound also came in with a Kd1 in assay [2] of 47 µM.

Regarding `O=c1c(O)c(-c2cc(O)c(O)c(O)c2)oc2cc(O)cc(O)c12`, the K1 in assay [1] is given as 1.65×10^5 ± 0 M^-1. Further, the Kd1 in assay [2] came out at 1.4 µM.

Take `O=c1c(O)c(-c2ccc(O)c(O)c2)oc2cc(O)cc(O)c12`: the K1 in assay [1] is on record as 1.57 × 10^7 ± 2.14 M-1. Also, the results for the Kd1 in assay [3] and in assay [4] were 2.13 µM and 1.12 µM, respectively. Besides, the binding result in assay [5] was “yes”. The shift in melting temperature (ΔTm) in assay [6] worked out at 10 °C.

With `O=c1c(O)c(-c2ccc(O)cc2)oc2cc(O)cc(O)c12`, in assay [2], the Kd1 stood at 1.3 µM.

In the case of `O=c1cc(-c2ccc(O)c(O)c2)oc2cc(O)cc(O)c12`, the Kd1 in assay [2] is 1.5 µM.

As usually defined, the ΔTm is the shift of the melting midpoint relative to a reference.
